Reference: patent US20150353495A1 (PORTOLA PHARMACEUTICALS, INC., priority 2010, published 2015)

Tests used:
[1] = tested on: markers of allogeneic response (interferon gamma); details: kidney allograft patients; cited from earlier work
[2] = target: T1, full length active recombinant SYK enzyme (Homo sapiens, UniProt P43405); assay: Inhibition of Syk tyrosine phosphorylation activity (LANCE TR-FRET); assay type: biochemical
T1 construct: full length active recombinant SYK enzyme (Millipore, Calif.); purchased Millipore
Text: This example illustrates methods for evaluating the compounds of the invention, along with results obtained for such assays. The in vitro and in vivo human Syk activities of the inventive compounds can be determined by various procedures known in the art, such as a test for their ability to inhibit the activity of human plasma Syk. […] The IC50 value is the concentration (in nM) of the compound required to provide 50% inhibition of human Syk proteolytic activity.
An in vitro assay for detecting and measuring inhibition activity against Syk is as follows:
Inhibition of Syk Tyrosine Phosphorylation Activity
Potency of candidate molecules for inhibiting Syk tyrosine phosphorylation activity is assessed by measuring the ability of a test compound to inhibit Syk-mediated tyrosine phosphorylation of a Syk-specific substrate.
SYK tyrosine phosphorylation activity is measured using the LANCE™ Technology developed by Perkin Elmer Life and Analytical Sciences (Boston, Mass.). LANCE™ refers to homogeneous time resolved fluorometry applications using techniques such as time-resolved fluorescence resonance energy transfer assay (TR-FRET) (see generally for procedures in Perkin Elmer Application Note-How to Optimize a Tyrosine Kinase Assay Using Time Resolved Fluorescence-Based LANCE Detection, wwww.perkinelmer.com/lifesciences). The assay principle involves detection of a phosphorylated substrate using energy transfer from a phosphospecific europium-labeled antibody to streptavidin-allophycocyanin as an acceptor.
To test the ability of candidate molecules to inhibit SYK tyrosine phosphorylation activity, molecules are reconstituted in 30% DMSO and serially diluted 1:3 with the final dilution containing DMSO in the absence of the candidate molecule. The final DMSO concentration in the assay is 3%. Kinase assays are performed as a two part reaction. The first reaction is a kinase reaction and which comprises of a candidate molecule, full length active recombinant SYK enzyme (Millipore, Calif.) and biotin-labeled SYK-specific substrate biotin-[…]-OH. The second reaction involves termination of the kinase reaction and the simultaneous addition of the detection reagents-europium-labeled anti-phosphotyrosine reagent (Eu-W1024-PY100, Perkin Elmer, Boston, Mass.) and Streptavidin-Allophycocyanin detection reagent (SA-APC, Prozyme, CA). The kinase reaction is performed in a black U-bottom 96-well microtitre plate. The final reaction volume is 50 μL and contains a final concentration of 1 nM active SYK enzyme, 550 nM SYK-substrate, and 100 nM ATP diluted in a buffer containing 50 mM Tris pH 7.5, 5 mM MgCl2, and 1 mM DTT. The reaction is allowed to proceed for 1 hour at room temperature. The quench buffer contains 100 mM Tris pH 7.5, 300 mM NaCl2, 20 mM EDTA, 0.02% Brij35, and 0.5% BSA. The detection reagents are added to the reaction mixture at the following dilutions-1:500 for Eu-W1024-PY100 and 1:250 for SA-APC. The kinase reaction is terminated by the addition of 50 μL quench buffer containing the detection reagents. […] Detection of the phosphorlated substrate in the absence and presence of inhibitors is measured in the TR-FRET instrument, Analyst HT (Molecular Probes, Sunnyvale, Calif.) and the condition for measurements are set up using CriterionHost Release 2.0 (Molecular Probes, Sunnyvale, Calif.). […] Inhibition of SYK-tyrosine kinase activity is calculated as the maximum response observed in the presence of inhibitor, compared to that in the absence of inhibitor. […]

JAK1 = target: T2, JAK1 (Homo sapiens, UniProt P23458); assay: Z'-LYTE kinase assay JAK1; assay type: biochemical
T2 construct: 5 μl of catalytic domain recombinant Kinase enzyme+Tyr peptide substrate (Invitrogen, CA); purchased Invitrogen
T2 sequence (P23458 875-1153 limits assumed): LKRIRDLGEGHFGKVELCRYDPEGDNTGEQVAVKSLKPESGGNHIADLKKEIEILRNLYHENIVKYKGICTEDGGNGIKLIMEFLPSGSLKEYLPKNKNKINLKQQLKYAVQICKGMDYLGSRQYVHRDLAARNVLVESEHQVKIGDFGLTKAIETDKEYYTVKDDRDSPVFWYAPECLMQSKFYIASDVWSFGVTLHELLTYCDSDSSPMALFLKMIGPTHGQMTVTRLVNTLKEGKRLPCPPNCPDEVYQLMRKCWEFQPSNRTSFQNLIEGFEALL
How it was run: (§1)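 In duplicate wells, each test molecule (1% final DMSO) is incubated with recombinant kinase catalytic domain, Tyr6 peptide substrate and ATP for one hour at room temperature; a site-specific protease is then added for another hour before fluorescence reading.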

JAK2 = target: T3, JAK2 (Homo sapiens, UniProt O60674); assay: Z'-LYTE kinase assay JAK2; assay type: biochemical
T3 construct: 5 μl of catalytic domain recombinant Kinase enzyme+Tyr peptide substrate (Invitrogen, CA); purchased Invitrogen
T3 sequence (O60674 849-1124 limits assumed): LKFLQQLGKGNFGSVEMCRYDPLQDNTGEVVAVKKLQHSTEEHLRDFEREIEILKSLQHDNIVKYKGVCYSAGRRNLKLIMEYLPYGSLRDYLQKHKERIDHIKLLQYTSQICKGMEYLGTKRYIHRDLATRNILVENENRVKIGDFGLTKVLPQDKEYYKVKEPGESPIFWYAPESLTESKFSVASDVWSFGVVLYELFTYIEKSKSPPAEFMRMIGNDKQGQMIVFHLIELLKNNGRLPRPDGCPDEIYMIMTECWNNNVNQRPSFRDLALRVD
How it was run: as §1

JAK3 = target: T4, JAK3 (Homo sapiens, UniProt P52333); assay: Z'-LYTE kinase assay JAK3; assay type: biochemical
T4 construct: 5 μl of catalytic domain recombinant Kinase enzyme+Tyr peptide substrate (Invitrogen, CA); purchased Invitrogen
T4 sequence (P52333 822-1111 limits assumed): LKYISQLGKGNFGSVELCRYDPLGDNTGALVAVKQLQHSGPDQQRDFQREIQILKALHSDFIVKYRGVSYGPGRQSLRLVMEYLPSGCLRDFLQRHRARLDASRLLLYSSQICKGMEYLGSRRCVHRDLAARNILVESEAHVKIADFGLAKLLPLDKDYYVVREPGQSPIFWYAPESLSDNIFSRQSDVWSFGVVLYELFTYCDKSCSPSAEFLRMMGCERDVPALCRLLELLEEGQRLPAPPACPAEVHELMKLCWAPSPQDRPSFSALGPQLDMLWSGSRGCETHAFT
How it was run: as §1

[3] = tested on: JAK1/3 signaling to STAT6 in Ramos B cells; assay: IL4 stimulation of JAK1/3 signaling to STAT6 in Ramos B cells (pSTAT6 Y641, FACS); assay type: cell-based; details: Homo sapiens; for inhibition at 0.2 µM: 0.2 uM compound, read-out: IL-4/STAT6 in Ramos Percent Inhibition at 0.2 uM; for inhibition at 1 µM: 1.0 uM compound, read-out: IL-4/STAT6 in Ramos Percent Inhibition at 1.0 uM
How it was run: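 Phospho-STAT6 Y641 was measured by FACS using a PE-labelled antibody after fixation (2% paraformaldehyde) and methanol permeabilization. Before this, Ramos cells were exposed to compound for 1 h, then to 15 ng IL4 for 15 min.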

[4] = tested on: JAK1/3 signaling to STAT5 in primary T cells; assay: IL2 stimulation of JAK1/3 signaling to STAT5 in primary T cells (pSTAT5 Y694, FACS); assay type: cell-based; details: T-cell; for inhibition at 0.2 µM: 0.2 uM compound, read-out: IL-2/STAT5 Percent Inhibition at 0.2 uM; for inhibition at 1 µM: 1.0 μM compound, read-out: IL-2/STAT5 Percent Inhibition at 1.0 μM
Description: IL2 Stimulation of JAK1/3 Signaling to STAT5 in Primary T Cells:
The effect of JAK inhibitors on cytokine signaling pathways utilizing JAK3 was determined using an IL2 stimulation assay. IL2 engages a receptor complex that contains the IL2 receptor alpha and beta subunits, and the common gamma chain, to initiate activation of JAK1 and JAK3 leading to phosphorylation of STAT5 at tyrosine position 694. Lymphocytes are isolated from heparinized whole blood over a ficoll gradient, then resuspended in tissue culture media containing 10% fetal calf serum at 10×10̂6 cells/ml. 100 μl aliquots are pre-treated for 1 hour with various concentrations of compound, and then stimulated for 12 minutes with 100 U/ml IL2. The signaling reaction is terminated by fixing in 2% paraformaldehyde for 10 minutes at room temperature. Fixed cells are then washed and permeablized by suspension in 50% methanol (in PBS) at −80° C. Following overnight incubation at 4° C., cells are washed and resuspended in PBS containing 0.5% bovine serum albumin containing CD3-APC and pSTAT5 Y694-PE conjugated antibodies. After 1 hour incubation, cells are washed and the extent of STAT5 phosphorlyation in T cells is measured by FACS analysis.

TYK2 = target: T5, TYK2 (Homo sapiens, UniProt P29597); assay: Z'-LYTE kinase assay TYK2; assay type: biochemical
T5 construct: 5 μl of catalytic domain recombinant Kinase enzyme+Tyr peptide substrate (Invitrogen, CA); purchased Invitrogen
T5 sequence (P29597 897-1176 limits assumed): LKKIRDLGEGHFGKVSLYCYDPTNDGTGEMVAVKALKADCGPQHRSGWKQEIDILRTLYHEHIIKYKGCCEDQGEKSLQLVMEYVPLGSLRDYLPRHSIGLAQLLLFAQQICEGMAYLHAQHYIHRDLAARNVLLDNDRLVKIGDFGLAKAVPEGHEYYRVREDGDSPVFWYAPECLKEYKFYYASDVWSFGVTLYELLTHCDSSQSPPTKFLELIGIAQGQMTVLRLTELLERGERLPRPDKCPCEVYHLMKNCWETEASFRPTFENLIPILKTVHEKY
How it was run: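 IC50 derived by 4-parameter logistic fit of percent substrate phosphorylation relative to uninhibited wells. Tyr6 peptide phosphorylated by recombinant TYK2 catalytic domain for 1 h at room temperature (1% DMSO), cleaved by development protease 1 h, FRET emission ratio 445/520 nm.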

Row | SMILES | IC50 [2] [nM] | IC50 (JAK1) [nM] | IC50 (JAK2) [nM] | IC50 (JAK3) [nM] | IC50 (TYK2) [nM] | markers of allogeneic response (interferon gamma) [1] | inhibition at 0.2 µM [3] [%] | inhibition at 1 µM [3] [%] | inhibition at 0.2 µM [4] [%] | inhibition at 1 µM [4] [%]
1 | C[C@H]1CCN(C(=O)CC#N)C[C@H]1N(C)c1ncnc2[nH]ccc12 [CP-690,550] | – | – | – | – | – | can be reduced | – | – | – | –
2 | NC(=O)c1cnc(Nc2cccc(OCCN3CCOCC3)c2)cc1N[C@H](CO)c1ccccc1 [Example 230] | > 1000 | > 1000 | 100 to 1000 | 1 to 10 | – | – | – | – | – | –
3 | CC(=O)N1CCN(c2ccc(Nc3cc(N[C@H](CO)c4ccccc4)c(C(N)=O)cn3)cc2)CC1 [Example 231] | > 1000 | > 1000 | 100 to 1000 | 1 to 10 | – | – | – | – | – | –
4 | NC(=O)c1cnc(Nc2ccc(OCCN3CCCC3)cc2)cc1NCc1ccccc1 [Example 428, 4-(benzylamino)-6-(4-(2-(pyrrolidin-1-yl)ethoxy)phenylamino)nicotinamide] | – | > 1000 | 100 to 1000 | 1 to 10 | > 1000 | – | 33 | 46 | 56 | 84

Second part, led by results:

Row | IC50 [2] [nM] | IC50 (JAK1) [nM] | IC50 (JAK2) [nM] | IC50 (JAK3) [nM] | IC50 (TYK2) [nM] | SMILES | markers of allogeneic response (interferon gamma) [1] | inhibition at 0.2 µM [3] [%] | inhibition at 1 µM [3] [%] | inhibition at 0.2 µM [4] [%] | inhibition at 1 µM [4] [%]
5 | > 1000 | 100 to 1000 | 100 to 1000 | 100 to 1000 | – | CC(=O)N1CCN(c2ccc(Nc3ccc(C(N)=O)c(NC4CCC4)n3)cc2)CC1 [Example 1, 6-(4-(4-acetylpiperazin-1-yl)phenylamino)-2-(cyclobutylamino)nicotinamide] | – | – | – | – | –
6 | – | 100 to 1000 | 10 to 100 | 1 to 10 | 100 to 1000 | CC(=O)N1CCN(c2ccc(Nc3cc(NCc4cccc(F)c4F)c(C(N)=O)cn3)cc2)CC1 [Example 256, 6-(4-(4-acetylpiperazin-1-yl)phenylamino)-4-(2,3-difluorobenzylamino)nicotinamide] | – | 37 | 64 | 69 | 100
7 | – | 100 to 1000 | 100 to 1000 | 1 to 10 | > 1000 | NC(=O)c1cnc(Nc2ccc(OCCN3CCOCC3)cc2)cc1NCc1ccccc1 [Example 429, 4-(benzylamino)-6-(4-(2-morpholinoethoxyl)phenylamino)nicotinamide] | – | 19 | 33 | 60 | 77
